In data set [1] the test system is NGF-differentiated PC12 cells. Put plainly: Cytotoxicity in NGF-differentiated PC12 cells, WST-8 cell viability assay. Type of data set: cell-based. The following applies: WST-8, 0.01–8.00 mM, 24 h. The method, then:
Pheochromocytoma cells (PC12) cells were cultured in collagen-coated dishes in DMEM supplemented with heat-inactivated 5% FBS, 10% horse serum, 10 mM HEPES, 2 mM glutamine, 25 UI/mL penicillin, and 25 μg/mL streptomycin (maintenance medium) and grown at 37 °C in a humidified 5% CO2 atmosphere. Cell differentiation was performed as described[54] with minor modifications. In brief, cells were seeded (250.000 cells/well) onto 96-well plates in the maintenance medium, and after 24 h, the medium was changed to a differentiation medium containing 50 ng/mL NGF. After 24 h, neurite outgrowth was already apparent.
Treatments with different concentrations of the drug in DMEM were performed 48 h after cell differentiation. 10 μL of the tested drug was added per well, in triplicate, and cells were incubated for 24 h at 37 °C in a humidified 5% CO2 atmosphere. Thereafter, the medium was removed and immediately replaced with a maintenance medium. 10 μL of the CCK-8 Cell Counting Kit, based on 2-(2-methoxy-4-nitrophenyl)-3-(4-nitrophenyl)-5-(2,4-disulfophenyl)-2H-tetrazolium, monosodium salt (WST-8), was added per well and was incubated for 2 h at 37 °C in a humidified 5% CO2 atmosphere. This method has been defined as a good alternative to the 3-(4,5-dimethylthiazol-2-yl)-2,5-diphenyltetrazoliumbromide (MTT) assay.[63] Optical density was measured at 450 nm, using a microplate reader.
For in vitro assays, data were normalized with 100% defined as the mean of the technical replicates in the control group and expressed as mean ± SEM. Nonlinear regression was used to fit the different competition curves. Data were plotted and best fitted to a sigmoidal dose–response curve from which an IC50 or LC50 value was obtained. Transporter ratios were calculated as (1/DAT IC50: 1/SERT IC50). Although IC50 values at inhibiting 5-HT uptake for some compounds tested are expressed as >100 μM for clarity purposes, DAT/SERT ratios were calculated with the original raw data. The Cheng–Prusoff equation was used to calculate Ki (affinity): Ki = EC50/(1 + [radioligand concentration/Kd]).[65] The sample size for behavioral experiments was determined using GPower software. One-way or two-way ANOVA, and subsequent Tukey’s posthoc test, conducted only if F was significant, was used to determine the effects of cathinones on cytotoxicity, HLA, OF, and CPP experiments. The α error probability was set at 0.05 (p < 0.05). The exact size group for the behavioral experiments is shown in the corresponding figure legends. All statistic calculations were carried out using GraphPad Prism (GraphPad software, San Diego, CA, USA).
(Formazan colour is commonly taken as a measure of viable cells.)

For another data set, the system named is Swiss CD-1 mice. In words: Open-field (OF) test, center versus periphery (anxiety-like behavior). The following applies: 10 mg/kg i.p. Type of data set: in vivo. The method, then:
Male Swiss CD-1 mice (Janvier, Le Genest, France) weighing 30–35 g (6–8 weeks old), housed in temperature-controlled conditions (22 ± 1 °C) under a 12 h light/dark cycle and with free access to food and drinking water (standard laboratory diet, Panlab SL, Barcelona, Spain), were randomly assigned to an experimental group. Efforts were made to minimize animal use and suffering.
The anxiety-like effects of the test compounds were assessed through an OF test as described.[64] Animals were placed individually in the center of an open-field arena (25 cm length × 25 cm width × 40 cm height), and the time spent, in seconds, in the center (8 × 8 cm) or the periphery of the arena was monitored for 60 min (Smart 3.0 Panlab, Barcelona, Spain).

The values below come from publication PMC9936538, “Structure–Activity Relationship of N-Ethyl-Hexedrone Analogues: Role of the α-Carbon Side-Chain Length in the Mechanism of Action, Cytotoxicity, and Behavioral Effects in Mice” (ACS Chemical Neuroscience, 2023).

Take `CCCCCC(NCC)C(=O)c1ccccc1` (centres unmarked) [NEHP, N-ethyl-heptedrone]: in data set [1], the “concentration at which cytotoxicity starts” value was 100 µM.

Take `CCCCC(NCC)C(=O)c1ccccc1` (centres unmarked) [NEH, N-ethyl-hexedrone]: the “anxiogenic effect in OF test” value in the data set on Swiss CD-1 mice is listed as “acute anxiogenic effects”.
